# In US12358959B2, “Compositions and methods for oligodendrocyte development” (CHILDREN'S MEDICAL CENTER CORPORATION, priority 2016, dated 2025):
# “Also recorded” adds a separate entry of the source.
# Tests used:
# cerebellar slices = test: Remyelination of LPC-demyelinated cerebellar slice cultures; format: cell-based, mouse; conditions: Gpr56+/+;Tgm2−/− cerebellar slices, LPC 24 hr, 4 days of remyelination, TG2 20 nM; listed as Recombinant TG2
# Excerpt: FIG. 12D provides composite images created in Image J showing myelinated axons (black) for quantification. FIG. 12E is a graph showing percentage of myelinated axons after remyelination. Remyelination was reduced in cerebellar slices that lacked OPC-derived GPR56. *P=0.0135, paired t-test, N=5 per genotype. FIG. 12F provides representative images of cerebellar slice cultures from P10 Gpr56^+/+; Tgm2^−/− and Gpr56^−/−; Tgm2^−/− mouse cerebella that were demyelinated with LPC for 24 hr followed by 4 days of remyelination in the presence or absence of TG2 (20 nM). Slices were immunostained with NF200 (white) and MBP (light gray); myelinated fibers appear yellow in merged images. Scale bar, 100 μm.
# Gpr56^fl/fl;PdgfrαCreER^− and Gpr56^fl/fl;PdgfrαCreER^+ P7 pups were injected with tamoxifen (50 mg kg^−1) for 3 days before the cerebellar harvesting. All cerebella were harvested on P10 and placed in ice-cold Hank's buffer (Fisher Scientific) before being cut into 300 μm thick sagittal sections with a vibratome (Leica Biosystems). Three slices were placed onto inserts (Millicell 0.4 μm, Millipore) in media containing 50% MEM, 25% Horse Serum, 25% Hank's Buffer, 1% GlutaMax, 5 mg/ml Glucose. […] Quantification of myelinated fibers was performed using Image J by subtracting background and applying threshold for both red and green channel, before measuring both myelinated and unmyelinated axon fibers.
# [1] = system: oligodendrocyte precursors (OPCs); test: OPC proliferation in culture with recombinant TGM2, BrdU/PDGFRα double immunostaining; format: cell-based, mouse; conditions: 2 nM recombinant TGM2, 24 hrs
# Description: FIG. 14A depicts a TGM2 western blot on acutely isolated microglia, OPCs, astrocytes and oligodendrocytes. β-actin was used as loading control. FIG. 14B depicts representative images of BrdU (white) and PDGFRα (light gray) double immunostaining on OPC cultured for 24 hrs in proliferation media in the presence and absence of 2 nM recombinant TGM2. Scale bar, 100 μm. FIG. 14C depicts quantification of the percentage of BrdU^+ of total PDGFRα^+ OPCs. *P=0.0492, paired t-test, N=3 per genotype. Error bars are means±s.e.m.
# To investigate whether TGM2 directly regulates OPC proliferation in a GPR56-dependent manner, OPCs derived from P5 Gpr56^+/− or Gpr56^−/− pups were cultured in the presence or absence of human recombinant TGM2 (FIGS. 15A and 15B) with the presence of BrdU. The cells were double immunostained for PDGFRα and BrdU (FIG. 14B).
# GPR56 = molecular target: T1, GPR56 (Mus musculus, UniProt Q8K209); test: TG2 activation assay: GPR56 NTF released into supernatant of HEK 293T cells (Western blot); format: cell-based; conditions: 10 min, HEK 293T transfected with mouse Gpr56
# T1 construct: expressed in transfected cells; host or cells: HEK 293T
# Description: (§1) HEK 293T cells were transiently transfected with mouse Gpr56 cDNA. Twenty-four hours after transfection, the cells were subject to serum starvation for 36 hr followed by the addition of recombinant TG2 250 nM with/without recombinant laminin-111 12.5 nM, or acetic acid as control for 10 min. The conditioned media were harvested, filtered, and concentrated as previously described. Equal volumes of the concentrated media were used for Western blot (Luo et al., PLOS One 9, e100043, 2014), while the cell pellets were used for GTP-Rho pull-down assay.
# RhoA = test: GTP-Rho pull-down assay in HEK 293T cell pellets; format: cell-based; conditions: 10 min, HEK 293T transfected with mouse Gpr56
# Description: as §1
# The corpus callosums (CCs) were dissected under a Leica stereo microscope (MZ 6; Leica™ Pte Ltd.), followed by washes in PBS and lysis in ice-cold RIPA buffer (1% Nonidet P-40, 50 mM Tris pH 7.6, 120 mM NaCl, 1 mM EDTA) containing protease inhibitor cocktail set 1 (Calbiochem). The lysates were cleared of insoluble materials by centrifugation at 16,000×g for 10 min at 4° C. Protein concentration was determined by a Bio-Rad protein assay method (Bio-Rad) according to the manufacturer's protocol, and equal amounts of protein were used for SDS-PAGE and western blot analysis. The GTP-Rho pull-down assay was performed as previously described (Luo et al., Proc Natl Acad Sci USA 108, 12925-12930, 2011). […] Bound Rho proteins were eluted by Laemmli sample buffer and detected by western blot using mouse monoclonal anti-RhoA antibody (Cytoskeleton).
# [2] = TG2 250 nM with laminin-111 12.5 nM
# T1 sequence (Q8K209 26-687): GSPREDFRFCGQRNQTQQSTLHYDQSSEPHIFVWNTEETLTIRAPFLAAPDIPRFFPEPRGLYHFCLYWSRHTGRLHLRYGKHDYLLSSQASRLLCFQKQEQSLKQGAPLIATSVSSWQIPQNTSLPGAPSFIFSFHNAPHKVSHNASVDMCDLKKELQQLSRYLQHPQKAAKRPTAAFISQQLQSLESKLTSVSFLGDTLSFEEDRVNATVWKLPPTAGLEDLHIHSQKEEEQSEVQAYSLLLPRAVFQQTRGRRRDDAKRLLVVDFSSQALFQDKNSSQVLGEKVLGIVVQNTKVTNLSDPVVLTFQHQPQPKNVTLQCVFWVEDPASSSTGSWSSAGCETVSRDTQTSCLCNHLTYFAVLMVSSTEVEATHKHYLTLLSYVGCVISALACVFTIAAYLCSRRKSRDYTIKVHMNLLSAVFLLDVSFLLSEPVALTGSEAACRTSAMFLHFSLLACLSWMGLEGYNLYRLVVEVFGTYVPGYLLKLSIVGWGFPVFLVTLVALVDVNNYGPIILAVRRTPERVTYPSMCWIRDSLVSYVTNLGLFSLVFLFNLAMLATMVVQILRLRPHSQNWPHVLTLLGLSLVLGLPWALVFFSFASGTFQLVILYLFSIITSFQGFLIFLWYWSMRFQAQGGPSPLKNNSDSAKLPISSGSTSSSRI
substance,measurement,setting,value
Transglutaminase 2 [TG2],Remyelination (percentage of myelinated axons),cerebellar slices,rescued remyelination failure; also recorded: promotes remyelination
same,OPC proliferation (percentage of BrdU+ of total PDGFRα+ OPCs),"[1]; proliferation media, OPCs printed as Gpr56−/− (first mention; cultures were Gpr56+/− or Gpr56−/−)",significantly increased
same,OPC proliferation (percentage of BrdU+ of total PDGFRα+ OPCs),[1]; Gpr56−/− OPCs (second mention),attenuated
same,Released GPR56 NTF in supernatant,GPR56; TG2 250 nM alone vs control,n.s.
same,Released GPR56 NTF in supernatant,GPR56; [2],removed the GPR56 NTF
same,Relative level of GTP-RhoA to total RhoA,RhoA; TG2 250 nM alone vs control,n.s.
same,Relative level of GTP-RhoA to total RhoA,RhoA; [2],activating RhoA downstream signaling
